Data as given in ChEMBL document CHEMBL3124772, “Design, synthesis, and evaluation of conformationally restricted acetanilides as potent and selective β3 adrenergic receptor agonists for the treatment of overactive bladder” (J Med Chem, 2014).

Tests used:
[1] = Fraction unbound in rhesus monkey plasma at 3 mg/kg, iv; assay type: ADME, organism-based, Macaca mulatta; parameters: dose 3 mg/kg, route intravenous
[2] = Fraction unbound in Beagle dog plasma at 3 mg/kg, iv; assay type: ADME, organism-based, Canis lupus familiaris; parameters: dose 3 mg/kg, route intravenous
[3] = Fraction unbound in Sprague-Dawley rat plasma at 3 mg/kg, iv; assay type: ADME, organism-based; parameters: dose 3 mg/kg, route intravenous
[4] = Lipophilicity, log D of the compound at pH 7.3; assay type: physicochemical; conditions: buffer
[5] = Oral bioavailability in rhesus monkey at 10 mg/kg; assay type: ADME, organism-based, Macaca mulatta; conditions: in vivo
[6] = Half life in rhesus monkey at 3 mg/kg, iv; assay type: ADME, organism-based, Macaca mulatta; parameters: dose 3 mg/kg, route intravenous; conditions: in vivo
[7] = Half life in Beagle dog at 3 mg/kg, iv; assay type: ADME, organism-based, Canis lupus familiaris; parameters: dose 3 mg/kg, route intravenous; conditions: in vivo
[8] = Half life in Sprague-Dawley rat at 3 mg/kg, iv; assay type: ADME, organism-based; parameters: dose 3 mg/kg, route intravenous; conditions: in vivo
[9] = Plasma clearance in rhesus monkey at 3 mg/kg, iv; assay type: ADME, organism-based, Macaca mulatta; parameters: dose 3 mg/kg, route intravenous
[10] = Plasma clearance in Beagle dog at 3 mg/kg, iv; assay type: ADME, organism-based, Canis lupus familiaris; parameters: dose 3 mg/kg, route intravenous
[11] = Plasma clearance in Sprague-Dawley rat at 3 mg/kg, iv; assay type: ADME, organism-based; parameters: dose 3 mg/kg, route intravenous

O=S(=O)(Nc1ccc(CCNC[C@H](O)c2cccnc2)cc1)c1ccc(-c2nc(-c3ccc(C(F)(F)F)cc3)cs2)cc1
fraction unbound [1]: 0.02
fraction unbound [2]: 0.02
fraction unbound [3]: 0.02
logD [4]: 4.6
bioavailability [5]: 4%
half-life [6]: 540 min
half-life [7]: 840 min
half-life [8]: 480 min
clearance [9]: 19 mL/min/kg
clearance [10]: 20 mL/min/kg
clearance [11]: 62 mL/min/kg
